According to ChEMBL document CHEMBL3407341, “Synthesis and biological evaluation of 2-aryliminopyrrolidines as selective ligands for I1 imidazoline receptors: discovery of new sympatho-inhibitory hypotensive agents with potential beneficial effects in metabolic syndrome” (J Med Chem, 2015):
Calls of active or inactive are those of the source. No cut-off for these calls is given here.

How the values were obtained:
Rattus norvegicus [1] = experiment: Reduction in heart rate in normotensive anaesthetized Wistar rat at 10 mg/kg, iv; set-up: scale not given: the % may be the effect or the level left
[2] = molecular target: T1, Adrenergic receptor alpha-2 (Homo sapiens, UniProt P08913+P18825+P18089); experiment: Displacement of [3H]RX821002 from human alpha2 adrenoceptor expressed in CHO cell membranes after 60 mins; type: cell-based
T1 sequence (P08913 whole entry): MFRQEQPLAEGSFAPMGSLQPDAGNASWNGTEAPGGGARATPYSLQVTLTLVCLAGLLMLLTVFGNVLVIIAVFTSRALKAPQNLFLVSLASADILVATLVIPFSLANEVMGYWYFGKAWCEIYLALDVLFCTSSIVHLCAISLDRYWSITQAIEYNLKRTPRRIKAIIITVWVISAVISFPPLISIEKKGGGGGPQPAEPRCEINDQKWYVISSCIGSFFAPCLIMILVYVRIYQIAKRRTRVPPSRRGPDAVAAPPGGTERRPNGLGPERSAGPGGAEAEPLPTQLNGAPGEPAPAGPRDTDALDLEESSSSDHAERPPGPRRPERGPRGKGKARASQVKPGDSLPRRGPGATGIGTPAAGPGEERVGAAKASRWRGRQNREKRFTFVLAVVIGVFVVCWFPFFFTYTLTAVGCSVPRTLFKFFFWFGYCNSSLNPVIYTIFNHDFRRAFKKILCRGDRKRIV
T1 sequence (P18825 whole entry): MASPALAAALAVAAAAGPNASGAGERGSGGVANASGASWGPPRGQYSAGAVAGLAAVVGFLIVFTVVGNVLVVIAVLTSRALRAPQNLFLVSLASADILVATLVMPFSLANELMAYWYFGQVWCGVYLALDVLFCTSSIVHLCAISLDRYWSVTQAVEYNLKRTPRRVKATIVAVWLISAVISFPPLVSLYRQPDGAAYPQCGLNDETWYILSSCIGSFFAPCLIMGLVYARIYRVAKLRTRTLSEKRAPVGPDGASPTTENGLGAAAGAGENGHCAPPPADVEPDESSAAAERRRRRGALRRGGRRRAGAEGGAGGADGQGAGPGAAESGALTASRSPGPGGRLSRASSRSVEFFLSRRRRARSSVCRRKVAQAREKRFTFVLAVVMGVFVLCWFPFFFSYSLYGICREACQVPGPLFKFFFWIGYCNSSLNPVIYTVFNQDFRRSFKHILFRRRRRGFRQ
T1 sequence (P18089 whole entry): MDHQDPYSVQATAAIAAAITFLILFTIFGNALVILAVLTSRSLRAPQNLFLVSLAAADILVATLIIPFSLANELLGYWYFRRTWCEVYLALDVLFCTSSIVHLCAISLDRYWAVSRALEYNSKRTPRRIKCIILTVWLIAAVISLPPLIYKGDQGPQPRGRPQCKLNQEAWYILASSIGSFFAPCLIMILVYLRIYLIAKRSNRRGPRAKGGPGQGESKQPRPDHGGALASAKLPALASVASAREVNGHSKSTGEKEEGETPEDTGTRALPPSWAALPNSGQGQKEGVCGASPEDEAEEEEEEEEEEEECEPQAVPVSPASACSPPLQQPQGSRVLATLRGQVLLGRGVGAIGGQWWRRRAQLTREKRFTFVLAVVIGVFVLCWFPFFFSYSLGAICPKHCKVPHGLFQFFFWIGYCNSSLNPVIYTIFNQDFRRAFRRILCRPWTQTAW

Rattus norvegicus [3] = experiment: Reduction in heart rate in normotensive anaesthetized Wistar rat at 0.3 mg/kg administered intracisternally; type: functional; set-up: scale not given: the % may be the effect or the level left
Rattus norvegicus [4] = experiment: Reduction in mean arterial blood pressure in normotensive anaesthetized Wistar rat at 10 mg/kg, iv; set-up: scale not given: the % may be the effect or the level left
Rattus norvegicus [5] = experiment: Reduction in mean arterial blood pressure in normotensive anaesthetized Wistar rat at 0.3 mg/kg administered intracisternally; type: functional; set-up: scale not given: the % may be the effect or the level left
Nischarin = Nischarin (Rattus norvegicus, UniProt Q4G017); experiment: Displacement of [125I] PIC from I1 imidazoline receptor in rat PC12 cells after 45 mins by gamma counting; type: cell-based, PC-12
Nischarin, sequence (Q4G017 whole entry): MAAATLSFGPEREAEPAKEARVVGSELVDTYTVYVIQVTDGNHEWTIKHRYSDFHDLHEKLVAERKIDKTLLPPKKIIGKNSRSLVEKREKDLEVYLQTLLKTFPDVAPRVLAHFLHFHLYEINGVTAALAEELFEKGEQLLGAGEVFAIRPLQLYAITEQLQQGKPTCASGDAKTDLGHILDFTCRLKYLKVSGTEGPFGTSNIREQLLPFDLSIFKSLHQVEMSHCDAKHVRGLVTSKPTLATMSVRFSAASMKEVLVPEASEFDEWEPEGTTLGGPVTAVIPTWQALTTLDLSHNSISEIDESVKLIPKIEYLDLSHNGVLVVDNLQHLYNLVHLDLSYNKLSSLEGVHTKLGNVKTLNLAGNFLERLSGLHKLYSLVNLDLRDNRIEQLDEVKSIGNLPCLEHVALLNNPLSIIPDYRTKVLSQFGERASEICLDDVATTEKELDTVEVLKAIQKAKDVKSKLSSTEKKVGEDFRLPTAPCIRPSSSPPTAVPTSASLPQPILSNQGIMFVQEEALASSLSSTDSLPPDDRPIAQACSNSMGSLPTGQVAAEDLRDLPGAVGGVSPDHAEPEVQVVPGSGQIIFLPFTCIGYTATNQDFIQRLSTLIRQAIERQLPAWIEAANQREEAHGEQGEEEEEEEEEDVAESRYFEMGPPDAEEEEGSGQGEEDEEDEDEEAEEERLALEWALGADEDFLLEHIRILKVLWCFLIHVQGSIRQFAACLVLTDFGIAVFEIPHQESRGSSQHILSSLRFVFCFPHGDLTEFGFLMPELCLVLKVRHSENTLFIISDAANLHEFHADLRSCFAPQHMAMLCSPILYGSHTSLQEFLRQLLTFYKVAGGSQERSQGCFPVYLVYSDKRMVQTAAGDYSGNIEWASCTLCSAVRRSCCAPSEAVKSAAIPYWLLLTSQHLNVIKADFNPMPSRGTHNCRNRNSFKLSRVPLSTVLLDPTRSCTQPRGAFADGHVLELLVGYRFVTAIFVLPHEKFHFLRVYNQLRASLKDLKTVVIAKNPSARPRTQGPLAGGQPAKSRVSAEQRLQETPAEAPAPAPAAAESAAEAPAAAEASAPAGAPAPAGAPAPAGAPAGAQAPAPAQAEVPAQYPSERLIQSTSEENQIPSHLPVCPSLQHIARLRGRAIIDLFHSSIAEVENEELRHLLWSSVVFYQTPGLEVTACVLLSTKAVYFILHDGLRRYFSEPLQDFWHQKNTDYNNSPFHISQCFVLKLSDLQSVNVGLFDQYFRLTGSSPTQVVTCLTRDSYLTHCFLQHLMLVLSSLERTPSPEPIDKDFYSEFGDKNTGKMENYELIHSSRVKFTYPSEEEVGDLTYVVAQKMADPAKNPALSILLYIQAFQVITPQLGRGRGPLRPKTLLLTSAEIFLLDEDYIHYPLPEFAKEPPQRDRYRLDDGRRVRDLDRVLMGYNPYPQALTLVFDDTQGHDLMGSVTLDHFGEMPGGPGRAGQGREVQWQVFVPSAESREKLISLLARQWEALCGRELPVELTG

Rattus norvegicus [6] = experiment: Reduction in heart rate in normotensive anaesthetized Wistar rat at 3 mg/kg, iv; set-up: scale not given: the % may be the effect or the level left
Rattus norvegicus [7] = experiment: Reduction in mean arterial blood pressure in normotensive anaesthetized Wistar rat at 3 mg/kg, iv; set-up: scale not given: the % may be the effect or the level left
Rattus norvegicus [8] = experiment: Reduction in heart rate in normotensive anaesthetized Wistar rat at 10 mg/kg, iv; type: functional; set-up: scale not given: the % may be the effect or the level left
CHO = experiment: Selectivity ratio of Ki for I1 imidazoline receptor in rat PC12 cells to Ki for human alpha2 adrenoceptor expressed in CHO cell membranes; type: cell-based

Ki [2] | Ki (Nischarin; read-out: Ki) | Compound | Activity (Rattus norvegicus [1]) | Activity (Rattus norvegicus [3]) | Activity (Rattus norvegicus [4]) | Activity (Rattus norvegicus [5]) | also measured
> 10000 nM | 27 nM | Cc1c(Cl)cccc1/N=C1\CCC(C)N1.Cl (stereo not drawn) | 20% | 30% | 28% | 25% | –
> 10000 nM | – | Cc1c(Cl)cccc1/N=C1\CC(C)CN1.Cl (stereo not drawn) | – | 33% | – | 30% | Activity (Rattus norvegicus [6]): 18%; Activity (Rattus norvegicus [7]): 30%
– | – | Cc1cc(F)ccc1/N=C1\CCC(C)N1.Cl (stereo not drawn) | 8% | inactive | 6% | inactive | –
– | – | Cc1cccc(C)c1/N=C1/CCC(C)N1.Cl (stereo not drawn) | 4% | inactive | 5% | inactive | –
– | – | Cc1ccc(F)c(/N=C2\CCC(C)N2)c1.Cl (stereo not drawn) | 6% | inactive | 9% | inactive | –
– | – | CC1CN/C(=N\c2cccc3c2CCCC3)C1.Cl (stereo not drawn) | 3% | inactive | 5% | inactive | –
> 10000 nM | 73 nM | CC1CC/C(=N/c2cccc3c2CCCC3)N1.Cl (stereo not drawn) | 26% | 10% | 37% | 29% | –
> 10000 nM | – | CC1CC(NC(C2CC2)C2CC2)=NC1C (stereo not drawn) | – | – | – | – | Ki (Nischarin): 537 nM
– | – | CC1CC/C(=N/c2ccc3c(c2)CCC3)N1.Cl (stereo not drawn) | 4% | inactive | 8% | inactive | –
– | – | Cc1ccc(Cl)c(/N=C2\CCC(C)N2)c1.Cl (stereo not drawn) | 7% | inactive | 7% | inactive | –
– | 14.1 nM | Clc1cccc(Cl)c1N=C1NCCN1 [CLONIDINE] | – | – | – | – | –
– | 77.8 nM | COc1nc(C)nc(Cl)c1N=C1NCCN1 [MOXONIDINE] | – | – | – | – | –
> 2240 nM | 6.03 nM | CC1CC/C(=N\c2cc(N=[N+]=[N-])c(I)cc2Cl)N1 (stereo not drawn) | – | – | – | – | –
> 10000 nM | – | CC1CN/C(=N\c2ccc(Cl)c3c2CCC3)C1.Cl (stereo not drawn) | 6% | – | 10% | – | –
> 10000 nM | 5.3 nM | Cc1ccc(F)c(C2=NCCN2)c1 | – | – | – | – | –
– | – | CC1CN/C(=N\c2ccc3c(c2)CCC3)C1.Cl (stereo not drawn) | 4% | inactive | 8% | inactive | –
180 nM | 83.1 nM | C1COC(NC(C2CC2)C2CC2)=N1 [RILMENIDINE] | – | – | – | – | Ratio Ki (CHO): 2.1
> 2500 nM | 0.2 nM | CC1CCC(Nc2ccc(I)cc2Cl)=N1 (stereo not drawn) | – | – | – | – | –
> 10000 nM | 70 nM | Cc1cccc(/N=C2\CCC(C)N2)c1C.Cl (stereo not drawn) | 18% | 25% | 25% | 20% | –
– | – | CC1CC/C(=N/c2cc3c(cc2Cl)CCC3)N1.Cl (stereo not drawn) | 3% | inactive | 9% | inactive | –
> 10000 nM | – | Cc1ccc(/N=C2/CC(C)CN2)c2c1CCC2.Cl (stereo not drawn) | 22% | 15% | 26% | 32% | –
> 10000 nM | 19 nM | CC1CN/C(=N\c2cccc3c2CCC3)C1.Cl (stereo not drawn) | – | 30% | – | 30% | Activity (Rattus norvegicus [8]): 22%; Activity (Rattus norvegicus [7]): 35%
> 10000 nM | 6.4 nM | NC1=NCC(COc2ccccc2Br)O1 (stereo not drawn) | – | – | – | – | –

Compound | Ki [2] | Ki (Nischarin; read-out: Ki) | Activity (Rattus norvegicus [1]) | Activity (Rattus norvegicus [3]) | Activity (Rattus norvegicus [4]) | Activity (Rattus norvegicus [5]) | also measured
CC1CC/C(=N/c2ccc(Cl)c3c2CCC3)N1.Cl (stereo not drawn) | > 10000 nM | – | 7% | – | 6% | – | –
CC1CNC(Nc2c(Cl)cccc2Cl)=N1 (stereo not drawn) | > 1949 nM | – | – | – | – | – | –
Cc1cccc(/N=C2\CC(C)CN2)c1C.Cl (stereo not drawn) | 10000 nM | 42 nM | – | 31% | – | 25% | Activity (Rattus norvegicus [8]): 20%; Activity (Rattus norvegicus [7]): 26%
CC1CCC(Nc2ccc(Cl)c3c2CCC3)=N1 (stereo not drawn) | – | 2.8 nM | – | inactive | – | inactive | –
CC1CN=C(Nc2ccc(Cl)c3c2CCC3)C1 (stereo not drawn) | – | 0.22 nM | – | inactive | – | inactive | –
Cc1c(Cl)cccc1NC1=NCC(C)C1 (stereo not drawn) | – | 3.2 nM | – | – | – | – | Ratio Ki (CHO): > 3000
CC1CC/C(=N/c2cccc3c2CCC3)N1.Cl (stereo not drawn) | > 10000 nM | 19 nM | 20% | 29% | 37% | 32% | –
